Assay: Stabilization/storage of gold nanoparticles by exposure to a phosphino amino acid
Format: physicochemical
Excerpt: In addition to tuning particle size, an important purpose of stabilizers is to prevent agglomeration and/or oxidation of the gold nanoparticles during storage. All of the stabilizers identified above have been discovered to provide beneficial stability for gold nanoparticles produced through methods of the invention. […] Carbohydrates are an additional stabilizer discovered to be useful with practice of methods of the invention. More than one stabilizer may be employed. Any selected stabilizer can be added at any time during the synthesis of the nanoparticles. Preferably, the stabilizer is present in solution prior to introduction of the final reactant (i.e., one or both of gold salt and phosphino amino acid are added to a solution that already contains a stabilizer).
Still additional example methods of the invention are directed to methods for storing and/or stabilizing gold nanoparticles. It has been discovered the use of phosphino amino acids, with TAAC being a preferred example, provide beneficial levels of stability for storing gold nanoparticles. In an example method of the invention, gold nanoparticles (that may have been, for example, produced through a method other than one of the present invention) are exposed to a phosphino amino acid such as TAAC to prevent their agglomeration.

CC(NCP(CNC(C)C(=O)O)CNC(C)C(=O)O)C(=O)O (centres unmarked) [TAAC, trimeric alanine phosphine conjugate]
protection of gold nanoparticles from oxidation: help “protect” gold nanoparticles from oxidation
prevention of agglomeration of gold nanoparticles (over periods of 7, 14 and even 30 days): substantially prevent agglomeration
